Consider one molecule from US10059694B2, “2-aminopyrimidine compound and pharmaceutical composition and use thereof” (Shanghai Institute of Materia Medica, Chinese Academy of …, priority 2014, dated 2018).

One experiment deals with T1, EGFR^T790M/L858R (Homo sapiens, UniProt P00533, L858R/T790M).
T1 construct: purchased Millipore
The experiment is described as follows: kinase inhibitory activity test (ELISA), EGFR^T790M/L858R. The experiment is classed as biochemical. Put shortly: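 ELISA on poly(Glu,Tyr)4:1-coated plates; kinase reaction with 5 μM ATP (final) in 50 mM HEPES pH 7.4, 50 mM MgCl2, 5 mM MnCl2, 0.2 mM Na3VO4, 1 mM DTT, 1 h at 37° C. Phosphotyrosine detected via PY99/HRP and OPD at 490 nm; IC50 by four-parameter fit.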
(In general: An ELISA detects its analyte on a solid surface through an enzyme-linked reagent.)

The subject of experiment [1] is human epidermal carcinoma A431 cell line. The experiment is described as follows: SRB proliferation assay, A431 cells. Type of experiment: cell-based. The note with it: A-431, SRB, 72 h, read-out: IC50 A431. In a few lines:
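A431 cells in log phase are allowed to adhere for 24 h, then exposed to compound for 72 h in triplicate alongside DMSO controls. Cells are fixed with cold 10% TCA, stained with SRB, dye is solubilised in 10 mM Tris pH 10.5, and OD is read at 515 nm.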
For orientation: The SRB assay estimates cell density from bound dye.

The test system of experiment [2] is human non-small cell lung cancer NCI-H1975 cell line. The experiment can be described thus: SRB proliferation assay, NCI-H1975 cells. Type of experiment: cell-based. As to conditions: NCI-H1975, SRB, 72 h, read-out: IC50 NCI-H1975. In a few lines:
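NCI-H1975 cells in log phase were allowed to adhere for 24 h, then treated with compound in triplicate for 72 h. Cells were TCA-fixed and SRB-stained, with OD read at 515 nm; IC50 derived from growth inhibition versus DMSO control.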

The test system of experiment [3] is phosphorylation of EGFR^wt in A431 cells. The experiment is described as follows: Western blot, EGFR phosphorylation in A431 cells. Type of experiment: cell-based, human. The note with it: FIG. 2. As for the experimental part: The tests were performed using conventional Western Blot (immunoblotting test), as follows. A certain number of A431 cells and NCI-H1975 cells in the logarithmic growth phase were inoculated on 6-well plate and adherent cultured overnight in the incubator. Replaced with serum-free medium and starved for 24 h, a certain concentration of compound was added and reacted for 2 h. 50 ng/mL of EGF stimulating factor was added and reacted for 10 min. The cells were lysed with lysate and samples were collected, and then the samples were taken for SDS-PAGE electrophoresis. After electrophoresis, the protein was transferred to a nitrocellulose membrane by a semi-dry transfer system. The nitrocellulose membrane was placed in a blocking solution (5% skimmed milk diluted with TBS containing 0.1% Tween 20) for 2 h at room temperature, and then incubated overnight at 4° C. in a primary antibody solution (diluted with TBS containing 0.1% Tween 20 by 1:500). It was washed for three times with TBS containing 0.1% Tween 20 for 15 min each time. The membrane was placed in a secondary antibody solution (horseradish peroxidase labeled goat anti-rabbit IgG, diluted with TBS containing 0.1% Tween 20 by 1:2000) and reacted for 1 h at room temperature. After washed for three times as above, the membrane was dyed with ECL plus reagent and photoed using image Quant LAS 4000 camera.
(In general: Immunoblotting shows a protein as a band on a membrane.)

The test system of experiment [4] is human lung cancer NCI-H1975 nude mice subcutaneous xenografts. The experiment can be described thus: NCI-H1975 nude mice subcutaneous xenograft. Type of experiment: in vivo. As for the experimental part: The tumor tissue in the growth stage was taken and cut into small pieces of about 1.5 mm^3, which were inoculated subcutaneously in nude mice under aseptic conditions. When the tumor was grown to about 100 mm^3, nude mice were random allocated. […] The mice were gavage administered once a day for 11 days, and the solvent control group (injection water containing 1% Tween 80) was set. During the whole experiment, the diameter of the transplanted tumor was measured twice a week with a vernier caliper and the weights of the mice were weighed. The volume of tumor was calculated as follows: TV=½×a×b^2 (Where a,b respectively represent long and wide)

Structures are written as SMILES.

T1 sequence (P00533 25-1210 T790M/L858R): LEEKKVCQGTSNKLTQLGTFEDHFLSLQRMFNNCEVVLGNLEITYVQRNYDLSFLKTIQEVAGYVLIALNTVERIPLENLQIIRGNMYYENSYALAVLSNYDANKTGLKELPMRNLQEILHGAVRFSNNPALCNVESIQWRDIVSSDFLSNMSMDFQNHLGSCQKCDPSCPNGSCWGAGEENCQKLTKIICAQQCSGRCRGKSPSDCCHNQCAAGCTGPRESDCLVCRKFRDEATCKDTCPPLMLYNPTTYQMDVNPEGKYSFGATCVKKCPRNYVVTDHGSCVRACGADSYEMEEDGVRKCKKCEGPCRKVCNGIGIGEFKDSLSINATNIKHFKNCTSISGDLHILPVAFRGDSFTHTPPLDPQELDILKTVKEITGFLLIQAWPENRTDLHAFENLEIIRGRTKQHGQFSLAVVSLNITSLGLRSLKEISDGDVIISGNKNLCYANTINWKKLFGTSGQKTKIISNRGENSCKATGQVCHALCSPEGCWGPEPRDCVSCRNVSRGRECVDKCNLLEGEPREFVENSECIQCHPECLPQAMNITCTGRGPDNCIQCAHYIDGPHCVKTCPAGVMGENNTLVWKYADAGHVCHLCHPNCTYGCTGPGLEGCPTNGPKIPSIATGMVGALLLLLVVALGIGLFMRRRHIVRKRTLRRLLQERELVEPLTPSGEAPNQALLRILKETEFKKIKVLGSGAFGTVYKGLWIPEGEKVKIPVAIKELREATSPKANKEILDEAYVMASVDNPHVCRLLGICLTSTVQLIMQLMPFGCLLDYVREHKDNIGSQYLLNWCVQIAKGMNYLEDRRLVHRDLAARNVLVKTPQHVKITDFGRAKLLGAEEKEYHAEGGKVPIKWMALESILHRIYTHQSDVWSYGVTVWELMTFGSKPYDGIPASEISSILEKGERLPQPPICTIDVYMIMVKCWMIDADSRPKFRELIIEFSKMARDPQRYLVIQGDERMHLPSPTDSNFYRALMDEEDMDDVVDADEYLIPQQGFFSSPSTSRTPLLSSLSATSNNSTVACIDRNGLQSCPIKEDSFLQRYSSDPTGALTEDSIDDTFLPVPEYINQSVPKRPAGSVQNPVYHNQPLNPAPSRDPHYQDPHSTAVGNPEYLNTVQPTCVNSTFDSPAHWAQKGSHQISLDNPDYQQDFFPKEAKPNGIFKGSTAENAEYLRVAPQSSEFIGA

By IC50 is commonly meant the concentration that gives 50% inhibition. Turning to `C=CC(=O)Nc1cc(Nc2ncc(Cl)c(Nc3ccc4ccccc4c3)n2)c(OC)cc1N(C)CCN(C)C` [CCB120067, N-((5-((5-chloro-4-((naphthalen-2-yl)amino))pyrimidin-2-yl)amino)-2-((N-methyl-N-dimethylaminoethyl)amino)-4-methoxyphenyl)acrylamide], the IC50 at EGFR^T790M/L858R (ELISA, ATP 5 μM, 1 hour at 37° C.) is 0.4 nM; in experiment [1], 134 nM; in experiment [2] it was 1 to 56 nM. In addition, the “kinase inhibitory activity (in words)” value on EGFR^T790M/L858R (summary of Table 1) is reported as “potent”. Besides, in experiment [3], the “inhibitory activity on phosphorylation of EGFR^wt” value is listed as “weaker”. Also, the “inhibition of tumor growth” value in experiment [4] (10 mg/kg gavage once a day for 11 days, FIG. 3) is recorded as “significantly inhibit”. Besides, in experiment [4] (10 mg/kg gavage, after 7 days of administration), the tumor regression result is “completely subsided”. Also, the “inhibitory activity on tumor growth compared with positive control” value in experiment [4] (CCB120067 10 mg/kg versus CO1686 100 mg/kg) was “stronger than anti-tumor effect of CO1686 at 100 mg/kg dose”.
